Measured values: patent publication US11583524B2, “Inhibitors of the interaction between MDM2 and P53” (Janssen Pharmaceutica NV, priority 2007, dated 2023)
Structures can show the parent of a compound that is named as a salt.

Experiments:
p53 in A2780 cells = assay: p53 ELISA (preservation of p53 in A2780 cells); type: cell-based, human; conditions: Homo sapiens, lowest dose giving at least 140% of the p53 value in the control, 16 hours treatment, read-out: p53-elisa LAD
Experimental: The capacity of the compounds to preserve p53 in A2780 cells was measured with the p53 enzyme linked immunosorbent assay (ELISA). The p53 assay is a “sandwich” enzyme immunoassay employing two polyclonal antibodies. A polyclonal antibody, specific for the p53 protein, has been immobilized onto the surface of the plastic wells. Any p53 present in the sample to be assayed will bind to the capture antibody. The biotinylated detector polyclonal antibody also recognizes p53 protein, and will bind to any p53, which has been retained by the capture antibody. The detector antibody, in turn, is bound by horseradish peroxidase-conjugated streptavidin. The horseradish peroxidase catalyses the conversion of the chromogenic substrate o-phenylene diamine, the intensity of which is proportional to the amount of p53 protein bound to the plate. The coloured reaction product is quantified using a spectrophotometer. Quantitation is achieved by the construction of a standard curve using known concentrations of purified recombinant HIS tagged p53 protein (see example C.1).
A2780 cells (ATCC) were cultivated in RPMI 1640 supplemented with 10% fetal calf serum (FCS), 2 mM L-glutamine and gentamycin at 37° C. in a humidified incubator with 5% CO2.
A2780 cells were seeded at 20.000 cells per well in a 96 well plate, cultured for 24 hours and treated with compound for 16 hours at 37° C. in a humidified incubator. After incubation, the cells were washed once with phosphate-buffered saline and 30 μl, per well, low salt RIPA buffer (20 mM tris, pH7.0, 0.5 mM EDTA, 1% Nonidet P40, 0.5% DOC, 0.05% SDS, 1 mM PMSF, 1 μg/ml aprotinin and 0.5 μ/ml leupeptin) was added. Plates were placed on ice for 30 minutes to complete the lysis. p53 protein was detected in de lysates by using the sandwich ELISA, described below.
High binding polystyrene EIA/RIA 96 well plates (Costar 9018) were coated with the capture antibody pAb1801 (Abcam ab28-100) at a concentration of 1 μg/ml in coating buffer (0.1 M NaHCO3 pH8.2), 50 μl per well. The antibody was allowed to adhere overnight at 4° C. Coated plates were washed once with phosphate-buffered saline (PBS)/0.05% Tween 20 and 300 μl of blocking buffer (PBS, 1% bovine serum albumins (BSA)) was added, for an incubation period of 2 hours at room temperature. Dilutions of purified recombinant HIS tagged p53 protein, ranging from 3-200 ng/ml, were made in blocking buffer and used as standards.
Plates were washed twice with PBS/0.05% Tween 20 and blocking buffer or standards were added at 80 μl/well. To the standards, 20 μl of lysis buffer was added. The samples were added to the other wells at 20 μl lysate/well. After an overnight incubation at 4° C., plates were washed twice with PBS/0.05% Tween 20. Aliquots of 100 μl secondary polyclonal antibody p53(FL-393) (Tebubio, sc-6243) at a concentration of 1 μg/ml in blocking buffer were added to each well and allowed to adhere for 2 hours at room temperature. Plates were washed three times with PBS/0.05% Tween 20. Detection antibody anti-rabbit HRP (sc-2004, Tebubio) at 0.04 μg/ml in PBS/1% BSA was added and incubated for 1 hour at room temperature. Plates were washed three times with PBS/0.05% Tween 20 and 100 μl of substrate buffer was added (substrate buffer was prepared shortly before use by adding 1 tablet of 10 mg o-phenylene diamine (OPD) from Sigma and 125 μl 3% H2O2 to 25 ml OPD buffer: 35 mM citric acid, 66 mM Na2HPO4, pH5.6). After 5 to 10 minutes, colour reaction was stopped by adding 50 μl stop buffer (1 M H2SO4) per well. The absorbance at dual wavelengths of 490/655 nm was measured using a Biorad micro plate reader and the results were then analyzed.
For each experiment, controls (containing no drug) and a blank incubation (containing no cells or drugs) were run in parallel. The blank value was subtracted from all control and sample values. For each sample, the value of p53 (in absorbance units) was expressed as the percentage of the value for p53 present in the control. […]

U87MG glioma cells = assay: Alamar Blue cell proliferation assay, U87MG; type: cell-based, human; conditions: Homo sapiens, U-87 MG, 96 h, 4-day incubation, read-out: U87MG cell proliferation inhibition pIC50 (converted)
Experimental: The human U87MG glioma cells were cultured in DMEM medium supplemented with 2 mM L-Glutamine, 1 mM Sodium Pyruvate, 1.5 g/L Sodium Bicarbonate, 50 μg/ml gentamicin and 10% heat inactivated fetal calf serum. (U87MG cells are human glioblastoma cells with wild type p53. In this cell line MDM2 tightly controls p53 expression).
(§1) Resazurin was purchased from Aldrich (Prod. No. 199303). Potassium ferrocyanide, potassium ferricyanide, KH2PO4 and K2HPO4 were purchased from Sigma (Prod. Nos. P9387, P8131, P5655 and P8281, respectively).
(§2) Potassium Phosphate Buffer 0.1 M (PPB) was made as follows: 2.72 gram KH2PO4 and 13.86 gram K2HPO4 were dissolved in 500 ml milli-Q H2O, the pH was adjusted to pH 7.4 and the volume was brought to 1 litre with milli-Q H2O; the buffer was filter sterilised and stored at room temperature. Resazurin stock solution (PPB-A) was prepared fresh by dissolving 45 mg resazurin in 15 ml PBS. 30 mM potassium ferricyanide (PPB-B) was prepared by dissolving 0.987 gram potassium ferricyanide in 100 ml PPB. 30 mM potassium ferrocyanide (PPB-C) was prepared by dissolving 1.266 gram potassium ferrocyanide in 100 ml PPB.
(§3) Mixture of PPB-A, PPB-B and PPB-C was prepared by mixing equal volumes of the respective solutions. Resazurin work solution (herein termed “Alamar Blue” solution) was prepared by diluting said mixture 20×(vol/vol) in PPB and filter sterilising; the Alamar Blue solution could be kept at 4° C. for a maximum of 2 weeks.
(§4) For experiments in 384 wells plates the cells were seeded at a density of 5×10^3 cells/ml in Falcon 384-well culture plates (Life Technologies, Merelbeke, Belgium), black with clear bottom, in 45 μl culture medium. Cells were allowed to adhere to plastic for 24 hr. The tested compound was pre-diluted (1/50 in culture medium) and 5 μl pre-diluted compound was added to the wells. Following 4-day incubation, 10 μl of the Alamar Blue solution was added to each well and the cells were further incubated for 5 hrs (A2780) or 6 hrs (U87MG) at 37° C. The fluorescence intensity was measured for each well with a Fluorescence plate reader (Fluorskan, Labsystems, 540 nm excitation and 590 nm emission)
(§5) The antiproliferative activity was calculated as percentage of remaining viable cells in treated versus control (untreated cells) conditions. Within an experiment, the result for each experimental condition is the mean of 3 replicate wells. When appropriate, the experiments were repeated to establish full concentration-response curves. When appropriate, IC50-values (concentration of the drug, needed to reduce cell growth to 50% of the control) were computed using probit analysis for graded data (Finney, D. J., Probit Analyses, 2nd Ed. Chapter 10, Graded Responses, Cambridge University Press, Cambridge 1962). Herein the effects of test compounds are expressed as pIC50 (the negative log value of the IC50-value) (see Table 4).

[1] = tested on: A2780 ovarian cancer cells; assay: Alamar Blue cell proliferation assay, A2780; type: cell-based, human; conditions: Homo sapiens, 96 h, 4-day incubation, read-out: A2780 cell proliferation inhibition pIC50 (converted)
Experimental: Cellular activity of the compounds of formula (I) was determined on A2780 tumour cells using a colorimetric assay for cell toxicity or survival (see example C.2).
The human A2780 ovarian cancer cells were a kind gift from Dr. T. C. Hamilton (Fox Chase Cancer Centre, Pennsylvania, U.S.A.). The cells were cultured in RPMI 1640 medium supplemented with 2 mM L-Glutamine, 50 μg/ml gentamicin and 10% fetal calf serum.
as §1, §2, §3, §4, §5

| Structure (SMILES) | melting point [°C] | IC50 (U87MG glioma cells) [µM] | IC50 [1] [µM] | minimal effective concentration (p53 in A2780 cells) [µM] |
| --- | --- | --- | --- | --- |
| OCc1cc(Nc2cc(F)c(NCCc3c[nH]c4ccccc34)c(F)c2)ccn1 (as salt: hydrochloric acid salt) [Compound 14] | 110 | – | – | – |
| Cc1c(NCCc2c[nH]c3ccccc23)ccc(Nc2ccncc2)c1C [Compound 1] | 186 | > 10 | > 10 | > 10 |
| Cc1c(NCCc2c[nH]c3ccccc23)ccc(Nc2ccnc(CO)c2)c1C [Compound 2] | 163 | 7.76 | > 10 | 3 |
| FC(F)(F)c1cc(Nc2ccncc2)cc(C(F)(F)F)c1NCCc1c[nH]c2ccccc12 [Compound 3] | 187 | > 10 | > 10 | > 10 |
| c1ccc2c(CCNc3ccc(Nc4ccncc4)c4ccccc34)c[nH]c2c1 [Compound 6] | 166 | 1.58 | > 10 | 1 |
| Fc1cc(Nc2ccncc2)cc(F)c1NCCc1c[nH]c2ccccc12 [Compound 11] | 164 | 4.9 | > 10 | > 10 |
| OCc1cc(Nc2cc(Cl)c(NCCc3c[nH]c4ccccc34)c(Cl)c2)ccn1 [Compound 24] | 115 | > 10 | > 10 | > 10 |
| Cc1[nH]c2ccccc2c1CCNc1c(Cl)cc(Nc2ccnc(CO)c2)cc1Cl [Compound 25] | 186 | > 10 | > 10 | 3 |
| COc1ccc2c(CCNc3c(Cl)cc(Nc4ccnc5ccccc45)cc3Cl)c[nH]c2c1 [Compound 31] | 175 | 1.32 | ~2.57 | 1 |
| CC(=O)Nc1cc(NCCc2c[nH]c3ccccc23)c(F)cc1Nc1ccncc1 [Compound 50] | 241 | > 10 | > 10 | > 10 |
| OCc1cc(NCCc2c[nH]c3ccccc23)c(Br)cc1Nc1ccnc2ccccc12 [Compound 53] | 192 | 3.98 | > 10 | > 10 |
| Cl.N#Cc1c(NCCc2c[nH]c3ccccc23)ccc(Nc2ccncc2)c1N1CCOCC1 [Compound 55] | 245 | > 10 | > 10 | > 10 |

Further lines, with some results ahead:

| melting point [°C] | IC50 (U87MG glioma cells) [µM] | IC50 [1] [µM] | Structure (SMILES) | minimal effective concentration (p53 in A2780 cells) [µM] |
| --- | --- | --- | --- | --- |
| 178 | > 10 | > 10 | OC1CCc2c(Nc3cc(C(F)(F)F)c(NCCc4c[nH]c5ccccc45)c(C(F)(F)F)c3)ccnc21 (centres unmarked) [Compound 5] | 0.3 |
| 207 | > 10 | 4.17 | Cc1cc(Nc2ccnc3c2CCC3O)c(Cl)cc1NCCc1c[nH]c2ccccc12 (centres unmarked) [Compound 9] | > 10 |
| 237 | 2.82 | 3.55 | Cc1cc(Nc2ccnc3c2CCC3O)c(Cl)cc1NCCc1c[nH]c2c(C)cccc12 (centres unmarked) [Compound 10] | 1 |
| 147 | 6.92 | 8.32 | OC1CCc2c(Nc3cc(F)c(NCCc4c[nH]c5ccccc45)c(F)c3)ccnc21 (centres unmarked) [Compound 17] | 1 |
| 123 | 0.646 | 0.501 | COc1c(Nc2ccnc3c2CCC3O)ccc(NCCc2c[nH]c3c(OC)cccc23)c1F (centres unmarked) [Compound 49] | 1 |
| – | 0.339 | 0.0851 | C=C(C)c1cccc2c(CCNc3ccc(Nc4ccnc5c4CCC5O)c(OC)c3F)c[nH]c12 (centres unmarked) [Compound 64] | 0.3 |
